From PMC10045483, “Comparative Pharmacokinetic Study of 5 Active Ingredients after Oral Administration of Zuogui Pill in Osteoporotic Rats with Different Syndrome Types” (International Journal of Analytical Chemistry, 2023)
Like-named read-outs stand apart in the source and are kept apart here.

What was measured:
[1] = Pharmacokinetic study of 5 compounds in rat plasma after oral administration of Zuogui Pill extract (HPLC-MS/MS, noncompartmental analysis); assay type: in vivo, Female Sprague-Dawley rats; details: oral Zuogui Pill extract 1.5 mL/100 g; for Cmax / Tmax / half-life / CL/F / MRT last / MRT inf: female, Sprague-Dawley, rat, po, 1.5 mL/100 g; for Cmax / Tmax / half-life / AUC0–t / AUC0–∞: n = 6; for CL/F: n = 6, read-out: CL_F_obs (converted); for MRT last: n = 6, read-out: MRT0–t; for MRT inf: n = 6, read-out: MRT0–∞
Procedure: Female Sprague-Dawley rats (180–220 g) were purchased from Shanghai Laboratory Animal Centre (Shanghai, China). The rats were maintained in a standard environment (22 ± 1°C, 60 ± 10% relative humidity, and a 12 h light/dark cycle) for one week to acclimate and fed water and food ad libitum. Twenty-four rats were divided randomly into […] and treated through ovary enucleation to establish the model of osteoporosis. Ten weeks after operation, osteoporosis models of kidney-yang-deficiency and kidney-yin-deficiency were established by intramuscular injection of hydrocortisone (25 mg/kg) and intragastric administration of thyroxine suspension (160 mg/kg) for 10 days, respectively. The femur of two rats from each group was then stained with hematoxylin and eosin (H&E) to assess histopathological change. Also, the validation of osteoporosis kidney-yang-deficiency and kidney-yin-deficiency models was judged by detecting the level of cyclic adenosine monophosphate (cAMP) and cyclic guanosine monophosphate (cGMP) in rat plasma. Laboratory Animal Management and Ethics Committee of Zhejiang Chinese Medical University approved all animal treatments (ZSLL-2014-48).
One hundred microliters of plasma was mixed with 100 μL of the IS solution, followed by 700 μL of methanol:acetonitrile (1 : 1). After 2 min of vortex mixing, the mixture was spun for 15 min at 8000 rpm and 4°C. The supernatants were collected and dried in a high-purity N2 environment. The residues were redissolved in 100 μL methanol and centrifuged for 15 min at 13000 rpm and 4°C. Finally, an aliquot of 10 μL supernatants was used to conduct the analysis.
Four groups of rats were orally administered with Zuogui Pill extract at a dose of 1.5 mL/100 g. Then, 0.3 mL blood samples were collected from orbital veins at 0, 0.08, 0.17, 0.25, 0.5, 1, 2, 4, 6, 8, 12, and 24 h after administration, placed in an anticoagulant tube, and centrifuged for 15 min at 5000 rpm and 4°C. The plasma was prepared and stored at −20°C until analysis.
Phoenix WinNonlin 6.4 software was used to estimate pharmacokinetic parameters using noncompartmental analysis. Furthermore, SPSS 26 software was used to compute comparisons of the pharmacokinetic data among the four groups according to a one-way ANOVA. The results are presented as mean ± SD.

[2] = Stability of analytes in rat plasma (QC samples) under storage conditions; details: n = 5; for Stability, Room temperature for 4 h, Mean: 25°C; for Stability, Three freeze-thaw cycles, Mean: −20°C to 25°C
Procedure: QC samples at three levels using five replicates were used to evaluate the stability under the following conditions: 4 h at room temperature (25°C), 24 h in autosampler (4°C), and three freeze-thaw cycles (−20°C to 25°C).

[3] = osteoporosis rats (ovariectomized)
[4] = osteoporotic rats with kidney-yang-deficiency
[5] = osteoporotic rats with kidney-yin-deficiency
[6] = high QC (800, 16000, 3200, 400, 40 ng/mL in the same order)
[7] = low QC (2, 40, 8, 1, 0.1 ng/mL for chlorogenic acid, loganin, morroniside, aucubin, protocatechuic aldehyde)
[8] = middle QC (40, 800, 160, 20, 2 ng/mL in the same order)

## OCC1=C[C@@H](O)[C@@H]2C=CO[C@@H](O[C@@H]3O[C@H](CO)[C@@H](O)[C@H](O)[C@H]3O)[C@H]12 [Aucubin, aucubin]
[1]; normal rats
  Cmax: 84.4 ± 32.2 ng/mL
  Tmax: 0.38 ± 0.14 h
  half-life: 5.97 ± 2.89 h
  CL/F: 22.6 mL/min/kg
  MRT last: 5.38 ± 2.01 h
  MRT inf: 8.58 ± 2.71 h
  AUC0–t: 170.50 ± 64.82 h∗ng/mL
  AUC0–∞: 204.69 ± 68.61 h∗ng/mL
[1]; [3]
  Cmax: 103 ± 23.6 ng/mL
  Tmax: 0.17 h
  half-life: 3.67 ± 0.78 h
  CL/F: 26.5 mL/min/kg
  MRT last: 3.06 ± 0.12 h
  MRT inf: 5.62 ± 1.09 h
  AUC0–t: 116.40 ± 11.00 h∗ng/mL
  AUC0–∞: 155.64 ± 24.54 h∗ng/mL
[1]; [4]
  Cmax: 96 ± 24.2 ng/mL
  Tmax: 0.25 h
  half-life: 7.4 ± 1.68 h
  CL/F: 38.8 mL/min/kg
  MRT last: 2.95 ± 0.38 h
  MRT inf: 11.7 ± 1.31 h
  AUC0–t: 48.33 ± 14.05^∗∗ h∗ng/mL
  AUC0–∞: 111.33 ± 29.94 h∗ng/mL
[1]; [5]
  Cmax: 181 ± 30.7 ng/mL
  Tmax: 0.25 h
  half-life: 8.68 ± 2.92 h
  CL/F: 16 mL/min/kg
  MRT last: 7.32 ± 1.92 h
  MRT inf: 14.1 ± 5.85 h
  AUC0–t: 201.40 ± 32.43^∗∗ h∗ng/mL
  AUC0–∞: 272.67 ± 70.63^∗∗ h∗ng/mL
[2]; [6]
  Stability, Room temperature for 4 h, Mean: 92.8%
  Stability, Autosampler at 4°C for 24 h, Mean: 90.2%
  Stability, Three freeze-thaw cycles, Mean: 89.1%
[2]; [7]
  Stability, Room temperature for 4 h, Mean: 89.8%
  Stability, Autosampler at 4°C for 24 h, Mean: 88.6%
  Stability, Three freeze-thaw cycles, Mean: 84.2%
[2]; [8]
  Stability, Room temperature for 4 h, Mean: 91.3%
  Stability, Autosampler at 4°C for 24 h, Mean: 92.5%
  Stability, Three freeze-thaw cycles, Mean: 86.9%
